# Test results from patent US11478469B2, “Combination product of BCL-2 inhibitor and MDM2 inhibitor and use thereof in the prevention and/or treatment of diseases” (ASCENTAGE PHARMA (SUZHOU) CO., LTD., priority 2018, dated 2022).
# pIC50: −log10 of the molar value.
# What was measured:
# [1] = test system: human RS4;11 (ALL) mouse xenograft tumor; experiment: Human RS4;11 ALL mouse xenograft tumor model; format: in vivo; settings: for antitumor effect in words: 21 days of administration, Compound 6 50 mg/kg qd alone (12.5 or 50 mg/kg in combination), APG-115 50 mg/kg q2d; for CR (tumor complete regression), mice per group, day 21 after administration / PR (tumor partial regression), mice per group, day 21 after administration / RTV on day 21 after administration (mean ± standard error) / T/C (%) on day 21 after administration / Tumor remission rate % on day 21 after administration: Compound 6 50 mg/kg qd and/or APG-115 50 mg/kg q2d; for Tumor remission rate % on day 21 after administration: remission including CR, PR, and SD
# Source text: A subcutaneous xenograft tumor model of human tumor immunodeficient mice was established by cell inoculation (see: Gould S E et al. Translational value of mouse models in oncology drug development. Nature medicine. 2015 21, 431-439; and, Souers A J et al. ABT-199, a potent and selective BCL-2 inhibitor, achieves antitumor activity while sparing platelets. Nature medicine. 2012 19.202-208): tumor cells in logarithmic growth phase were collected, counted and resuspended in 1×PBS, and the cell suspension concentration was adjusted to 2.5-5×10^7/mL. Using a 1 mL syringe ([…]), the tumor cells were inoculated subcutaneously in the right side of immunodeficient mice, 5-10×106/0.2 mL/mouse (experimental animals were purchased from Beijing Vital River Laboratory Animal Technology Co., Ltd. SCXK (Beijing) 2016-0006). All animal experiments were strictly in accordance with the laboratory animal use and management practices of GenePharma Co., Ltd. and Ascentage Pharma Group Co., Ltd. The calculation of relevant parameters referred to the Chinese CFDA “Guidelines for Non-Clinical Research Techniques of Cytotoxic Antitumor Drugs”.
# Animal body weight and tumor size were measured twice a week during the experiment. The conditions and death of the animals were observed every day. Routine monitoring included the effects of tumor growth and treatment on normal animal behaviors, including activity, feeding and drinking situations, weight gain or loss, eyes, coat and other abnormalities in the experimental animals. The deaths and clinical symptoms observed during the experiment were recorded in the raw data. The entire operations of administration, measurement of mouse body weight and tumor volume were performed in a clean bench. Plasma and tumor tissues were collected, weighed and photographed after the end of the last administration according to the experimental protocol. Plasma and tumor samples were frozen and stored at −80° C.
# Tumor volume (TV) was calculated as: TV=a×b2/2, in which a and b represented the length and width of the tumor as measured, respectively. The relative tumor volume (RTV) was calculated as: RTV=Vt/V1, in which V1 was the tumor volume at the time of grouping and administration, and Vt was the tumor volume measured on a day after administration. The evaluation index of anti-tumor activity was the relative tumor proliferation rate T/C (%), which was calculated as: relative tumor proliferation rate T/C (%)=(TRTV/CRTV)×100%, in which TRTV was the RTV of the treatment group, CRTV was the RTV of the vehicle control group; tumor remission rate (%) was calculated as: (the number of SD (stable disease), PR (tumor partial regression) and CR (tumor complete regression) in the tumor-bearing mice after treatment)/the total number of mice in the group×100%. Change of body weight %=(measured body weight−body weight at the time of grouping)/body weight at the time of grouping×100%.
# The synergistic analysis was performed by the following formula (Gould S E et al. Translational value of mouse models in oncology drug development. Nature medicine. 2015 21, 431-439): synergy factor=((A/C)×(B/C))/(AB/C); A=RTV value of the group administered with A only; B═RTV value of the group administered with B only; C=RTV value of the vehicle control group; AB=RTV value of the group administered with A and B in combination (Clarke R. Issues in experimental design and endpoint analysis in the study of experimental cytotoxic agents in vivo in breast cancer and other models [J]. Breast Cancer Research & Treatment, 1997, 46(2-3): 255-278).
# (1) The experimental method was as described in Section (2) of Example 1. RS4;11 carried wild-type p53 and was an ideal model for evaluating the anti-tumor effect of MDM2 inhibitors. […]
# [2] = test system: OCI-AML-3 (acute myeloid leukemia (AML)); experiment: CellTiter-Glo (CTG) cell proliferation assay, OCI-AML-3; format: cell-based; settings: Homo sapiens; OCI-AML-3, single agent alone, 24 hours; read-out: IC50 for inhibition of proliferation
# Protocol: Anti-proliferative effects were tested by CellTiter-Glo® (CTG) assay. Cells were seeded in 96-well plates and treated with different concentrations of test substance for 24 hours. […] Each test dose was tested with 3 replicate wells. Usually, 9 series of doses of the test substance were selected, and added to 96-well plates, 5 μl/well. For the combination experiment, the final volume of the two test substances was 5 μl/well. Each test dose was tested with 3 replicate wells. On the same plate, 3-6 wells were selected and added with 100 μl of dilution solution as a control group, and another 3-6 wells were used as a blank control. […] After mixing on a shaker for 2 minutes, leaving at room temperature for 10 minutes, the fluorescence value was read by using a Biotek synergy HIMF plate reader. […] For the combination test, the cell viability was calculated by normalizing the average OD value of 3 duplicate wells of the single drug control. […] Cell viability (%) values of Compound 6 alone and the combination of Compound 6 and APG-115 in the following malignant tumor cells were determined in the CTG experiment: OCI-AML-3 (acute myeloid leukemia (AML)), MV-4-11 (acute myeloid leukemia (AML)), KMS-26 (multiple myeloma (MM)), KMS-11 (multiple myeloma (MM)).
SMILES,antitumor effect in words [1],"CR (tumor complete regression), mice per group, day 21 after administration [1]","PR (tumor partial regression), mice per group, day 21 after administration [1]",RTV on day 21 after administration (mean ± standard error) [1],T/C (%) on day 21 after administration [1] [%],Tumor remission rate % on day 21 after administration [1] [%],pIC50 [2]
CCN1[C@@H](C(=O)NC23CCC(C(=O)O)(CC2)CC3)[C@H](c2cccc(Cl)c2F)[C@]2(C(=O)Nc3cc(Cl)ccc32)C12CCCCC2 [APG-115],no tumor growth inhibition effect,0/5,0/5,11.1 ± 0.9,106,0,5.62
"O=C(NS(=O)(=O)c1ccc(NC[C@H]2COCCO2)c([N+](=O)[O-])c1)c1ccc(N2CCN(CC3=C(c4ccc(Cl)cc4)CC4(CCC4)CC3)CC2)cc1Oc1cnc2[nH]ccc2c1 [Compound 6, (S)-N-((4-(((1,4-dioxan-2-yl)methyl)amino)-3-nitrophe-nyl)sulfonyl)-2-((1H-pyrrolo[2,3-b]pyridin-5-yl)oxy)-4-(4-((6-(4-chlorophenyl)spiro[3.5]non-6-en-7-yl)meth-yl)piperazin-1-yl)benzamide]",excellent antitumor effect,0/5,1/5,1.8 ± 0.4,17,20,4.99
